Source: patent US10428044B2, “3-amino-1,5,6,7-tetrahydro-4H-indol-4-ones” (Bayer Pharma Aktiengesellschaft, priority 2014, dated 2019)

Target: (recombinant) catalytic domain of human Bub1 (amino acids 704-1085) (Homo sapiens (Human), UniProt O43683)
Assay: Bub1 kinase assay (TR-FRET)
Format: biochemical
Settings: ATP 10 μM final, peptide substrate 1 μM final, 60 min at 22° C., read-out: Biological Assay: Bub1 kinase assay median IC50
Method in brief: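 Readout was TR-FRET between a Eu-labeled antibody complex recognizing phosphoserine and streptavidin-XL665 on the biotinylated peptide, after EDTA stop and 1 h at 22° C. The kinase reaction ran for 60 min at 22° C. Values are means or medians of repeat tests, from 4-parameter fits normalized to enzyme-free and inhibitor-free controls.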

(recombinant) catalytic domain of human Bub1 (amino acids 704-1085), sequence (O43683 704-1085): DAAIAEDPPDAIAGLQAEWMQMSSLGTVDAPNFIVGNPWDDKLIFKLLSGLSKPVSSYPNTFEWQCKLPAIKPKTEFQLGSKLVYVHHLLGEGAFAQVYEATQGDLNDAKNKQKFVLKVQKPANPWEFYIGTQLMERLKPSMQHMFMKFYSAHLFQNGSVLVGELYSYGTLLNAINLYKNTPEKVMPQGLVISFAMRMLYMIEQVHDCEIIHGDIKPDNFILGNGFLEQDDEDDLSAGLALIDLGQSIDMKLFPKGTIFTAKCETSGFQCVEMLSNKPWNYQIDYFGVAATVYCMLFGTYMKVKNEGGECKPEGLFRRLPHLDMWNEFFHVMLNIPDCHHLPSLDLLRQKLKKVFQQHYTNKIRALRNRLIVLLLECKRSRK

IC50 [nM] | SMILES
38 | CC(C)(C)OC(=O)N1CC(C(=O)Nc2cc(-c3[nH]c4c(c3Nc3ccccc3)C(=O)CCC4)ccn2)C1 [Example 295, tert-butyl 3-({4-[4-oxo-3-(phenylamino)-4,5,6,7-tetrahydro-1H-indol-2-yl]pyridin-2-yl}carbamoyl)azetidine-1-carboxylate]
3450 | O=C1CCCc2[nH]c(-c3ccnc(NC(=O)C4CNC4)c3)c(Nc3ccccc3)c21 [Example 296, N-{4-[4-oxo-3-(phenylamino)-4,5,6,7-tetrahydro-1H-indol-2-yl]pyridin-2-yl}azetidine-3-carboxamide]
271 | CN(CC(=O)Nc1cc(-c2[nH]c3c(c2Nc2ccccc2)C(=O)CCC3)ccn1)C(=O)OC(C)(C)C [Example 297, tert-butyl methyl[2-oxo-2-({4-[4-oxo-3-(phenylamino)-4,5,6,7-tetrahydro-1H-indol-2-yl]pyridin-2-yl}amino)ethyl]carbamate]
74.3 | CN(CCC(=O)Nc1cc(-c2[nH]c3c(c2Nc2ccccc2)C(=O)CCC3)ccn1)C(=O)OC(C)(C)C [Example 299, tert-butyl methyl[3-oxo-3-({4-[4-oxo-3-(phenylamino)-4,5,6,7-tetrahydro-1H-indol-2-yl]pyridin-2-yl}amino)propyl]carbamate]
475 | CNCCC(=O)Nc1cc(-c2[nH]c3c(c2Nc2ccccc2)C(=O)CCC3)ccn1 [Example 300, N^2-methyl-N-{4-[4-oxo-3-(phenylamino)-4,5,6,7-tetrahydro-1H-indol-2-yl]pyridin-2-yl}-beta-alaninamide]
738 | C[C@H](C(=O)Nc1cc(-c2[nH]c3c(c2Nc2ccccc2)C(=O)CCC3)ccn1)N(C)C(=O)OC(C)(C)C [Example 301, tert-butyl methyl[(2R)-1-oxo-1-({4-[4-oxo-3-(phenylamino)-4,5,6,7-tetrahydro-1H-indol-2-yl]pyridin-2-yl}amino)propan-2-yl]carbamate]
480 | CN[C@H](C)C(=O)Nc1cc(-c2[nH]c3c(c2Nc2ccccc2)C(=O)CCC3)ccn1 [Example 302, N^2-methyl-N-{4-[4-oxo-3-(phenylamino)-4,5,6,7-tetrahydro-1H-indol-2-yl]pyridin-2-yl}-D-alaninamide]
1410 | C[C@@H](C(=O)Nc1cc(-c2[nH]c3c(c2Nc2ccccc2)C(=O)CCC3)ccn1)N(C)C(=O)OC(C)(C)C [Example 303, tert-butyl methyl[(2S)-1-oxo-1-({4-[4-oxo-3-(phenylamino)-4,5,6,7-tetrahydro-1H-indol-2-yl]pyridin-2-yl}amino)propan-2-yl]carbamate]
174 | CN[C@@H](C)C(=O)Nc1cc(-c2[nH]c3c(c2Nc2ccccc2)C(=O)CCC3)ccn1 [Example 304, N^2-methyl-N-{4-[4-oxo-3-(phenylamino)-4,5,6,7-tetrahydro-1H-indol-2-yl]pyridin-2-yl}-L-alaninamide]
3990 | CNC(C)(C)C(=O)Nc1cc(-c2[nH]c3c(c2Nc2ccccc2)C(=O)CCC3)ccn1 [Example 306, N^2,2-dimethyl-N-{4-[4-oxo-3-(phenylamino)-4,5,6,7-tetrahydro-1H-indol-2-yl]pyridin-2-yl}alaninamide]
208 | CN(C)CC(=O)Nc1cc(-c2[nH]c3c(c2Nc2ccccc2)C(=O)CCC3)ccn1 [Example 307, N^2,N^2;-dimethyl-N-{4-[4-oxo-3-(phenylamino)-4,5,6,7-tetrahydro-1H-indol-2-yl]pyridin-2-yl}glycinamide]
234 | O=C(CN1CCCC1)Nc1cc(-c2[nH]c3c(c2Nc2ccccc2)C(=O)CCC3)ccn1 [Example 308, N-{4-[4-oxo-3-(phenylamino)-4,5,6,7-tetrahydro-1H-indol-2-yl]pyridin-2-yl}-2-(pyrrolidin-1-yl)acetamide]
238 | CN1CCCC1C(=O)Nc1cc(-c2[nH]c3c(c2Nc2ccccc2)C(=O)CCC3)ccn1 (stereo not shown) [Example 309, 1-methyl-N-{4-[4-oxo-3-(phenylamino)-4,5,6,7-tetrahydro-1H-indol-2-yl]pyridin-2-yl}-prolinamide]
127 | CN1C(=O)CCC1C(=O)Nc1cc(-c2[nH]c3c(c2Nc2ccccc2)C(=O)CCC3)ccn1 (stereo not shown) [Example 310, 1-methyl-5-oxo-N-{4-[4-oxo-3-(phenylamino)-4,5,6,7-tetrahydro-1H-indol-2-yl]pyridin-2-yl}-prolinamide]
40.6 | O=C1CCC(C(=O)Nc2cc(-c3[nH]c4c(c3Nc3ccccc3)C(=O)CCC4)ccn2)N1 (stereo not shown) [Example 311, 5-oxo-N-{4-[4-oxo-3-(phenylamino)-4,5,6,7-tetrahydro-1H-indol-2-yl]pyridin-2-yl}-prolinamide]
19.9 | COC(=O)Nc1cc(-c2[nH]c3c(c2Nc2cccc(F)c2)C(=O)CCC3)ccn1 [Example 312, methyl (4-{3-[(3-fluorophenyl)amino]-4-oxo-4,5,6,7-tetrahydro-1H-indol-2-yl}pyridin-2-yl)carbamate]
47.5 | O=C1CCCc2[nH]c(-c3ccnc(NC(=O)C4CC4)c3)c(Nc3ccc(F)cc3)c21 [Example 314, N-(4-{3-[(4-fluorophenyl)amino]-4-oxo-4,5,6,7-tetrahydro-1H-indol-2-yl}pyridin-2-yl)cyclopropanecarboxamide]

IC50 [nM] | SMILES
101 | CC(=O)Nc1cc(-c2[nH]c3c(c2Nc2ccc(F)c(F)c2)C(=O)CCC3)ccn1 [Example 315, N-(4-{3-[(3,4-difluorophenyl)amino]-4-oxo-4,5,6,7-tetrahydro-1H-indol-2-yl}pyridin-2-yl)acetamide]
82.3 | O=C1CCCc2[nH]c(-c3ccnc(NC(=O)C4CC4)c3)c(Nc3ccc(F)c(F)c3)c21 [Example 316, N-(4-{3-[(3,4-difluorophenyl)amino]-4-oxo-4,5,6,7-tetrahydro-1H-indol-2-yl}pyridin-2-yl)cyclopropanecarboxamide]
10.9 | CC(=O)Nc1cc(-c2[nH]c3c(c2Nc2ccccc2)C(=O)CC(C(C)C)C3)ccn1 (stereo not shown) [Example 317, N-{4-[4-oxo-3-(phenylamino)-6-(propan-2-yl)-4,5,6,7-tetrahydro-1H-indol-2-yl]pyridin-2-yl}acetamide]
9.71 | CC(C)C1CC(=O)c2c([nH]c(-c3ccnc(NC(=O)C4CC4)c3)c2Nc2ccccc2)C1 (stereo not shown) [Example 318, N-{4-[4-oxo-3-(phenylamino)-6-(propan-2-yl)-4,5,6,7-tetrahydro-1H-indol-2-yl]pyridin-2-yl}cyclopropanecarboxamide]
8.69 | CC(=O)Nc1cc(-c2[nH]c3c(c2Nc2cccc(F)c2)C(=O)CC(C(C)C)C3)ccn1 (stereo not shown) [Example 319, N-{4-[3-[(3-fluorophenyl)amino]-4-oxo-6-(propan-2-yl)-4,5,6,7-tetrahydro-1H-indol-2-yl]pyridin-2-yl}acetamide]
8.04 | CC(C)C1CC(=O)c2c([nH]c(-c3ccnc(NC(=O)C4CC4)c3)c2Nc2cccc(F)c2)C1 (stereo not shown) [Example 320, N-{4-[3-[(3-fluorophenyl)amino]-4-oxo-6-(propan-2-yl)-4,5,6,7-tetrahydro-1H-indol-2-yl]pyridin-2-yl}cyclopropanecarboxamide]
11.2 | CC(=O)Nc1cc(-c2[nH]c3c(c2Nc2ccc(F)cc2)C(=O)CC(C(C)C)C3)ccn1 (stereo not shown) [Example 321, N-{4-[3-[(4-fluorophenyl)amino]-4-oxo-6-(propan-2-yl)-4,5,6,7-tetrahydro-1H-indol-2-yl]pyridin-2-yl}acetamide]
12.7 | CC(C)C1CC(=O)c2c([nH]c(-c3ccnc(NC(=O)C4CC4)c3)c2Nc2ccc(F)cc2)C1 (stereo not shown) [Example 322, N-{4-[3-[(4-fluorophenyl)amino]-4-oxo-6-(propan-2-yl)-4,5,6,7-tetrahydro-1H-indol-2-yl]pyridin-2-yl}cyclopropanecarboxamide]
21.6 | CC(=O)Nc1cc(-c2[nH]c3c(c2Nc2ccc(F)c(F)c2)C(=O)CC(C(C)C)C3)ccn1 (stereo not shown) [Example 323, N-{4-[3-[(3,4-difluorophenyl)amino]-4-oxo-6-(propan-2-yl)-4,5,6,7-tetrahydro-1H-indol-2-yl]pyridin-2-yl}acetamide]
26.4 | CC(C)C1CC(=O)c2c([nH]c(-c3ccnc(NC(=O)C4CC4)c3)c2Nc2ccc(F)c(F)c2)C1 (stereo not shown) [Example 324, N-{4-[3-[(3,4-difluorophenyl)amino]-4-oxo-6-(propan-2-yl)-4,5,6,7-tetrahydro-1H-indol-2-yl]pyridin-2-yl}cyclopropanecarboxamide]
19.8 | COCC(=O)Nc1cc(-c2[nH]c3c(c2Nc2ccccc2)C(=O)CCC3)ccn1 [Example 325, 2-methoxy-N-{4-[4-oxo-3-(phenylamino)-4,5,6,7-tetrahydro-1H-indol-2-yl]pyridin-2-yl}acetamide]
608 | COC(C)(C)C(=O)Nc1cc(-c2[nH]c3c(c2Nc2ccccc2)C(=O)CCC3)ccn1 [Example 326, 2-methoxy-2-methyl-N-{4-[4-oxo-3-(phenylamino)-4,5,6,7-tetrahydro-1H-indol-2-yl]pyridin-2-yl}propanamide]
280 | CC(C)(O)C(=O)Nc1cc(-c2[nH]c3c(c2Nc2ccccc2)C(=O)CCC3)ccn1 [Example 327, 2-hydroxy-2-methyl-N-{4-[4-oxo-3-(phenylamino)-4,5,6,7-tetrahydro-1H-indol-2-yl]pyridin-2-yl}propanamide]
524 | CCOC(C)(C)C(=O)Nc1cc(-c2[nH]c3c(c2Nc2ccccc2)C(=O)CCC3)ccn1 [Example 328]
65.4 | COC(C)C(=O)Nc1cc(-c2[nH]c3c(c2Nc2ccccc2)C(=O)CCC3)ccn1 (stereo not shown) [Example 329]
7.83 | CCCOCC(=O)Nc1cc(-c2[nH]c3c(c2Nc2ccccc2)C(=O)CCC3)ccn1 [Example 330, N-{4-[4-oxo-3-(phenylamino)-4,5,6,7-tetrahydro-1H-indol-2-yl]pyridin-2-yl}-2-propoxyacetamide]
13 | CC(C)COCC(=O)Nc1cc(-c2[nH]c3c(c2Nc2ccccc2)C(=O)CCC3)ccn1 [Example 331, 2-(2-methylpropoxy)-N-{4-[4-oxo-3-(phenylamino)-4,5,6,7-tetrahydro-1H-indol-2-yl]pyridin-2-yl}acetamide]
